Assay results reported in patent publication US10314812B2, “Suspension compositions of physiologically active phenolic compounds and methods of making and using the same” (Humanetics Corporation, priority 2013, dated 2019).

How the values were obtained:
[1] = Particle size analysis by laser diffraction (LA-950, Horiba); type: physicochemical; details: for particle size distribution (PSD) after milling: 25% (w/v) genistein in olive oil, nanomilled 60 minutes in YTZ media, initial measurement; for D(0.50) particle size: material as provided by the commercial supplier (DSM), before milling
Source text: In the context of the present description, the particle size distribution of a given material is provided in volume diameter as measured in accordance with USP 429 using a laser diffraction particle size analyzer operating in the Mie Scattering Theory diffraction mode and equipped with a suspension dispersion sample chamber (e.g., as available from Horiba Instruments, Irvine, Calif., USA). For purposes of the present description, volume diameter is given as a particle size distribution defined by one or more of D (0.10), D (0.50) and D (0.90). When referred to herein, the term D (0.10) indicates the volume frequency distribution of particles for which 10% of the sample is below the referenced size, the term D (0.50) indicates the volume frequency distribution of particles for which 50% of the sample is below the referenced size, and the term D (0.90) indicates the volume frequency distribution of particles for which 90% of the sample is below the referenced size. In addition to measurement of the particle size distribution via laser diffraction, the results from such particle size analysis and/or the morphology of the particles may be confirmed using known electron microscopy techniques.
Genivida™, a food grade genistein, and Bonistein®, a pharmaceutical grade genistein, were obtained from a commercial supplier (DSM, http://www.dsm.com/corporate/home.html) and subjected to particle size analysis. […] FIG. 1 and FIG. 2 illustrate the PSD of the Genivida™ and Bonistein® materials as supplied from DSM.
The Genivida™ and Bonistein® materials were dispersed within the olive oil to provide a suspension composition that included 25% (w/v) genistein. Several samples ≈200 ml per sample) of the 25% w/v genistein/olive oil suspension were divided and milled using a, MiniCer® nanomill from Netzsch. The samples containing Bonistein® were milled for 60 minutes in a 0.3 mm YTZ media (yttria stabilized zirconium oxide (ZrO2) beads). Samples containing Genivida™ were milled for 60 minutes in a 0.5 mm YTZ media.
A selection of the samples containing Genivida™ were subjected to a pre-milling process (referred to or labeled as “pre-grind” samples). The pre-milling process also utilized a MiniCer® nanomill from Netzsch with YTZ milling media. However, the milling media utilized in the pre-milling step was 1.25 mm YTZ media. Pre-milling was carried out for 20 minutes, with the purpose of reducing the D(0.50) particle size of the Genivida™ to below 10 μm. After pre-milling, those samples subjected to the pre-milling procedure were milled in a MiniCer® nanomill for 60 minutes in a 0.3 mm YTZ media.
After the milling steps, particle size analysis was completed for each sample. […]

[2] = Particle size stability of genistein/olive oil nanosuspensions stored at ambient temperature (laser diffraction and TEM); type: physicochemical; details: suspended in olive oil, glass vials
Source text: After the milling steps, particle size analysis was completed for each sample. […] An amount of each nanosuspension composition was aliquoted into 3.7 cc glass vials, which were then stored at ambient temperature.
At approximately two months, samples were taken from each vial and subjected to laser diffraction particle size analysis and TEM analysis.
At the 3-month time point, a sample of each nanosuspension was taken from each vial and again subjected to laser diffraction particle size analysis and TEM analysis. Even after three months, the genistein material suspended in the olive oil remained nano-sized, with the D(0.50) at 3 months in all cases being <300 nm (see, FIGS. 3A-3C).
For each of the samples at each time point, particle size analysis conducted by laser diffraction was carried out using a LA-950 particle size analyzer from Horiba Scientific, Edison, N.J.

In the case of O=c1c(-c2ccc(O)cc2)coc2cc(O)cc(O)c12 [Bonistein®], the “particle size distribution (PSD) after milling” value [1] is reported as “nanoparticulate PSD” and the “D(0.50) particle size” value [1] is reported as 10.7 μm.
In the case of O=c1c(-c2ccc(O)cc2)coc2cc(O)cc(O)c12 [Genivida™], the “particle size distribution (PSD) after milling” value [1] is reported as “nanoparticulate PSD” and the “D(0.50) particle size” value [1] is reported as 29.5 μm.
With O=c1c(-c2ccc(O)cc2)coc2cc(O)cc(O)c12 [genistein, 5,7-dihydroxy-3-(4-hydroxyphenyl)-chromen-4-one] the “D(0.50) at 3 months” value ([2]; 3 months, all samples) was less than 300 nm and the “particle size distribution (PSD) after storage” value ([2]; approximately two months, laser diffraction and TEM) was “maintained a nanoparticulate PSD”.
